The numbers were not newly measured in patent publication US20080206335A1, “[…] CONTROLLED RELEASE SELECTIVE SEROTONIN […] INHIBITOR FORMULATIONS” (priority 1999, published 2008), which cites them from elsewhere.

For this data set the following is noted: steady state after multiple oral doses of 100 mg/day, healthy young volunteers.

Regarding `COCCCC/C(=N\OCCN)c1ccc(C(F)(F)F)cc1.O=C(O)/C=C\C(=O)O` [fluvoxamine, 5-methoxy-4′-(trifluoromethyl)valerophenone-(E)-O-(2-aminoethyl) oxime maleate (1:1)], the plasma elimination half-life is 15.6 h.
